This is an account of results in patent US9661844B2, “Pesticide composition delivery vehicles” (Dow AgroSciences LLC, priority 2012, dated 2017).

One assay has as its system banana plant. In words: Capsule field trial Location 2, banana growth parameters. The format is in vivo. Conditions: 3.5 Kg/Ha granules. An excerpt:
(§1) Field trials for the gel capsules of Example I were established under commercial conditions in banana production areas of Central America. Bananas were transplanted using commercial procedures typical of the area. Gel capsules according to Example I were used as a post-plant treatment. A commercial standard was also included as a comparison in each test. Treatments and use rates for both field trials are included in the Tables 3 and 4 below. Location 1 included four replications for each treatment and location 2 included three replications.
(§2) Gel caps were applied in the area immediately surrounding the base of the banana plant. Holes were made to a depth of 15-20 cm using a rod inserted into the soil. Gel caps were applied into the holes by hand and soil was reapplied into the holes to cover the gel caps. Commercial standards were formulated as granules and applied around the base of the plant without incorporation.
Several parameters were measured at intervals following application of the pesticide. Plant height and plant trunk diameter were evaluated over time at intervals of approximately two, four and six weeks after application of the pesticide. Root weight, percent functional roots and nematode counts were taken at intervals of 45 and 60 days after application (DAA). Plant height and trunk diameter were evaluated as direct measurements and are recorded in units of centimeters. Root weight, percent functional roots and nematode counts were obtained by separate soil samples which were taken and returned to the lab for analysis. Roots were separated from the soil and weighed. A separate, visual estimate was made to determine the percent of these roots that were healthy and functional. Nematode counts were made by extracting them from the roots and soil and then estimating the total by counting the actual number in subsamples of the extracted materials.

A further assay has as its system nematode. Briefly: Capsule field trial Location 2, nematode count. Conditions: 3.5 Kg/Ha granules. It counts as in vivo.
From the text: as §1, §2
Several parameters were measured at intervals following application of the pesticide. Plant height and plant trunk diameter were evaluated over time at intervals of approximately two, four and six weeks after application of the pesticide. Root weight, percent functional roots and nematode counts were taken at intervals of 45 and 60 days after application (DAA). Plant height and trunk diameter were evaluated as direct measurements and are recorded in units of centimeters. […]

`CCOP(=O)(SC(C)CC)SC(C)CC` (stereo not drawn) [cadusaphos, cadusafos]: the “Plant Height” value stood at 143 cm with banana plant (15 DAA), 156 cm with banana plant (29 DAA) and 169 cm in the assay on banana plant (43 DAA). In addition, the Stem diameter with banana plant (15 DAA) is recorded as 30 cm; with banana plant (29 DAA) it was 33 cm; with banana plant (43 DAA), 36 cm. In addition, the “% Functional roots” value in the assay with banana plant (45 DAA) is 82%; in the assay with banana plant (60 DAA), 86%. Besides, the results for the Root weight in the assay on banana plant (45 DAA) and in the assay with banana plant (60 DAA) were 44 gms and 53 gms, respectively. Further, the figures for the Nematode count in the assay on nematode (45 DAA) and in the assay with nematode (60 DAA) were 11,200a and 23,733a, respectively.
